Data taken from patent publication US20070105908A1, “Thiazolimine compound and oxazolimine compound” (DAINIPPON SUMITOMO PHARMA CO., LTD., priority 2003, published 2007).

Biological target: T1, chymase derived from human skin (Homo sapiens, UniProt P23946)
T1 construct: chymase derived from human skin (Elastin Products Co.); purchased Elastin Products Co; host or cells: human skin (tissue-derived)
T1 sequence (P23946 22-247): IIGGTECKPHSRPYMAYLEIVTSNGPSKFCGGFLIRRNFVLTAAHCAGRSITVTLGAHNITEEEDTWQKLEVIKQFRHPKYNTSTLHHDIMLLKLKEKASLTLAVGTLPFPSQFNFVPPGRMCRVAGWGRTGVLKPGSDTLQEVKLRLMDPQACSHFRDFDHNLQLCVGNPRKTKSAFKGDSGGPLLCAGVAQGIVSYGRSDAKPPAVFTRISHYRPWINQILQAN
Experiment: Inhibitory effect on chymase (in vitro test)
Format: biochemical
Conditions: 50 ng chymase, fluorescent synthetic substrate 0.1 mM, pH 8.0, 37° C. for 2 hours
Protocol: Inhibitory Effect on Chymase (In Vitro Test)
To 100 μl of a buffer solution A (50 mM Tris-hydrochloric acid (pH=8.0), 2M NaCl) were added 50 ng of chymase derived from human skin (Elastin Products Co.), a fluorescent synthetic substrate 0.1 mM succinyl-alanylprolyl-phenylalanine-methylcoumalylamide (Peptide Laboratories Co., Ltd.) and a test substance dissolved in dimethyl sulfoxide (DMSO), and the resulting mixture was incubated at 37° C. for 2 hours. Then, the intensity of fluorescence was measured at an excitation wavelength of 355 nm and a measuring wavelength of 460 nm by the use of a fluorescence plate reader (Fluoroscan (Dainippon Pharmaceutical Co., Ltd.)). A fluorescence intensity value obtained without adding the test substance was taken as 100% and a concentration at which a fluorescence intensity value calculated from a regression line became 50% was taken as IC50.

`Cc1cn(Cc2cccc3ccccc23)/c(=N/S(=O)(=O)c2ccccc2C(=O)O)s1` [Example 1, 2-({[(2Z)-5-methyl-3-(1-naphthylmethyl)-1,3-thiazol-2(3H)-ylidene]amino}sulfonyl)benzoic acid] was tested, and the IC50 was 2.1 nM.
